{"source": "patent US7122563B2", "about": "“Derivatives of 4-demethylpenclomedine, use thereof and preparation thereof” (Southern Research Institute, priority 2005, dated 2006)", "key": {"[1]": {"settings": "rats; cited from earlier work"}, "MX-1 Mammary Tumor": {"test_system": "MX-1 Mammary Tumor", "test": "MX-1 mammary tumor implanted in the mammary fat pad of mice, i.p. treatment"}, "[2]": {"test_system": "U251 human glioblastoma xenograft", "test": "Intracranially-implanted U251 human glioblastoma xenograft, survival", "assay_type": "in vivo", "settings": "for increase in life span (ILS): intracranially-implanted U251, side-by-side experiment", "from_the_text": "(§1) Treatment of i.c. implants is initiated 1 day after tumor implantation and continued for 5 days. Mice are monitored daily for survival."}, "[3]": {"test_system": "D54 human glioblastoma multiforme", "test": "Intracranially-implanted D54 human glioblastoma multiforme, survival", "assay_type": "in vivo", "from_the_text": "as §1"}, "[4]": {"test": "Behavioral test of neurotoxicity (tremors)", "assay_type": "in vivo", "settings": "DM-SMTC-PEN evaluated simultaneously with PEN", "from_the_text": "A major concern for the penclomedine (PEN) series of derivatives is their possible neurotoxicity. PEN was removed from clinical development as a potential drug for treating breast cancer because of its dose-limiting neurotoxicity."}, "[5]": {"settings": "after both intravenous and oral administration, related to peak plasma levels; cited from earlier work"}, "[6]": {"settings": "IP 135 mg/kg/dose, Days 15–19, groups of 5 mice"}, "[7]": {"settings": "IP 60 mg/kg/dose, Days 15–19, groups of 5 mice"}, "[8]": {"settings": "IP 135 mg/kg/dose, Days 13-17, groups of 5 mice"}}, "data": [{"smiles": "COc1nc(C(Cl)(Cl)Cl)c(Cl)c(O)c1Cl", "note": "[4-DM-PEN, 3,5-Dichloro-2-methoxy-4-hydroxy-6-(trichloromethyl)pyridine, reference compound]", "values": [{"measurement": "cerebellar damage", "setting": "[1]", "result": "cerebellar damage only in the PEN-treated group"}, {"measurement": "Growth Delay (T-C)", "setting": "MX-1 Mammary Tumor; IP 135 mg/kg/dose, Days 15–19", "result": 32.8}, {"measurement": "Tumor-free Survivors", "setting": "MX-1 Mammary Tumor; IP 135 mg/kg/dose, Days 15–19", "result": "0/5"}, {"measurement": "Regressions Complete", "setting": "MX-1 Mammary Tumor; [6]", "result": 0}, {"measurement": "Regressions Partial", "setting": "MX-1 Mammary Tumor; [6]", "result": 2}]}, {"smiles": "COc1nc(C(Cl)(Cl)Cl)c(Cl)c(OC(=O)SC)c1Cl", "note": "[DM-SMTC-PEN]", "values": [{"measurement": "activity against intracranially-implanted U251", "setting": "[2]; compared with the acyl derivatives", "result": "comparably active to the acyl derivatives"}, {"measurement": "increase in life span (ILS)", "setting": "[2]", "result": 56, "unit": "%"}, {"measurement": "increase in life span", "setting": "[3]", "result": 18, "unit": "%"}, {"measurement": "neurotoxicity (production of tremors)", "setting": "[4]", "result": "non-neurotoxic"}, {"measurement": "Growth Delay (T-C)", "setting": "MX-1 Mammary Tumor; IP 60 mg/kg/dose, Days 15–19", "result": ">41.6"}, {"measurement": "Tumor-free Survivors", "setting": "MX-1 Mammary Tumor; IP 60 mg/kg/dose, Days 15–19", "result": "2/5"}, {"measurement": "Regressions Complete", "setting": "MX-1 Mammary Tumor; [7]", "result": 2}, {"measurement": "Regressions Partial", "setting": "MX-1 Mammary Tumor; [7]", "result": 2}]}, {"smiles": "CCSC(=O)Oc1c(Cl)c(OC)nc(C(Cl)(Cl)Cl)c1Cl", "note": "[DM-SETC-PEN]", "values": [{"measurement": "Growth Delay (T-C)", "setting": "MX-1 Mammary Tumor; IP 60 mg/kg/dose, Days 15–19", "result": ">35.2"}, {"measurement": "Tumor-free Survivors", "setting": "MX-1 Mammary Tumor; IP 60 mg/kg/dose, Days 15–19", "result": "1/5"}, {"measurement": "Regressions Complete", "setting": "MX-1 Mammary Tumor; [7]", "result": 2}, {"measurement": "Regressions Partial", "setting": "MX-1 Mammary Tumor; [7]", "result": 3}]}, {"smiles": "COc1nc(C(Cl)(Cl)Cl)c(Cl)c(OC)c1Cl", "note": "[PEN, 3,5-dichloro-2,4-dimethoxy-6-(trichloromethyl) pyridine]", "values": [{"measurement": "neurotoxicity (production of tremors)", "setting": "[4]", "result": "production of tremors"}, {"measurement": "neurotoxicity in clinical trials", "setting": "[5]", "result": "dose-limiting neurotoxicity was observed"}, {"measurement": "cerebellar damage", "setting": "[1]", "result": "cerebellar damage only in the PEN-treated group"}]}, {"smiles": "CCN(CC)C(=S)Oc1c(Cl)c(OC)nc(C(Cl)(Cl)Cl)c1Cl", "note": "[DM-DETC-PEN]", "values": [{"measurement": "Growth Delay (T-C)", "setting": "MX-1 Mammary Tumor; IP 135 mg/kg/dose, Days 15–19", "result": ">35.2"}, {"measurement": "Tumor-free Survivors", "setting": "MX-1 Mammary Tumor; IP 135 mg/kg/dose, Days 15–19", "result": "1/5"}, {"measurement": "Regressions Complete", "setting": "MX-1 Mammary Tumor; [6]", "result": 1}, {"measurement": "Regressions Partial", "setting": "MX-1 Mammary Tumor; [6]", "result": 1}]}, {"smiles": "COc1nc(C(Cl)(Cl)Cl)c(Cl)c(OC(=O)Sc2ccccc2)c1Cl", "note": "[DM-SPTC-PEN]", "values": [{"measurement": "Growth Delay (T-C)", "setting": "MX-1 Mammary Tumor; IP 135 mg/kg/dose, Days 15–19", "result": ">35.2"}, {"measurement": "Tumor-free Survivors", "setting": "MX-1 Mammary Tumor; IP 135 mg/kg/dose, Days 15–19", "result": "1/5"}, {"measurement": "Regressions Complete", "setting": "MX-1 Mammary Tumor; [6]", "result": 2}, {"measurement": "Regressions Partial", "setting": "MX-1 Mammary Tumor; [6]", "result": 2}]}, {"smiles": "COc1nc(C(Cl)(Cl)Cl)c(Cl)c(OC(=S)N(C)C)c1Cl", "note": "[DM-DMTC-PEN]", "values": [{"measurement": "increase in life span (ILS)", "setting": "[2]", "result": 44, "unit": "%"}, {"measurement": "Growth Delay (T-C)", "setting": "MX-1 Mammary Tumor; IP 135 mg/kg/dose, Days 13-17", "result": ">37.0"}, {"measurement": "Tumor-free Survivors", "setting": "MX-1 Mammary Tumor; IP 135 mg/kg/dose, Days 13-17", "result": "3/5"}, {"measurement": "Regressions Complete", "setting": "MX-1 Mammary Tumor; [8]", "result": 4}, {"measurement": "Regressions Partial", "setting": "MX-1 Mammary Tumor; [8]", "result": 1}]}]}
